The text below walks through data of PubChem BioAssay (NCI).

Structures are written as SMILES.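 Grown in 96-well plates, cells were treated for 48 hours with each compound at five concentrations. Insufficient inhibition: endpoint recorded as highest concentration tested. Abbreviation: GI50, concentration required for 50% inhibition of growth. TGI: total growth inhibition.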

Among the test systems are IGROV1 ovarian; 786-0 renal; NCI-H522 lung; MDA-MB-435; OVCAR-8 ovarian; MOLT-4 leukemia; NCI-H460 lung; LOX IMVI melanoma; HT29 colon; M14 melanoma.
Assay in all cases: NCI anticancer screen, dose series, 48 h

As to `C=CC1CC12C(=O)C1OC2(C)C2C(=O)c3c(O)ccc(O)c3C(=O)C12` (configuration not stated), the GI50 is 3.26 µM with IGROV1 ovarian; 1.94 µM in the assay on 786-0 renal; 6.23 µM in the assay on NCI-H522 lung; 4.44 µM in the assay on MDA-MB-435; 6.24 µM in the assay with OVCAR-8 ovarian; 0.617 µM in the assay on MOLT-4 leukemia. In addition, the GI50 was 7.09 µM in the assay on NCI-H460 lung, 2.35 µM in the assay on LOX IMVI melanoma, 4.03 µM in the assay with HT29 colon and 3.58 µM with M14 melanoma. Further, the TGI in the assay with IGROV1 ovarian was over 100 µM; in the assay on 786-0 renal, 4.27 µM; in the assay on NCI-H522 lung it was 16.8 µM; in the assay with MDA-MB-435, 11.1 µM; with OVCAR-8 ovarian it was 20.2 µM; with MOLT-4 leukemia it was 17 µM. Further, the TGI in the assay with NCI-H460 lung stood at 23.7 µM; with LOX IMVI melanoma it was 10.6 µM; in the assay with HT29 colon it was 16 µM; in the assay with M14 melanoma, 14.7 µM.

Take `COc1ccccc1/C=N\N=C(N/N=C/c1ccccc1OC)N/N=C/c1ccccc1OC`: the GI50 with 786-0 renal is 3.25 µM; in the assay with NCI-H522 lung, 4.55 µM; in the assay with MDA-MB-435 it was 2.36 µM; with OVCAR-8 ovarian, 3.23 µM; with MOLT-4 leukemia, 3.04 µM; with NCI-H460 lung, 2.74 µM. The GI50 was 3.33 µM in the assay with LOX IMVI melanoma, 3.87 µM in the assay with HT29 colon and 2.99 µM in the assay on M14 melanoma. Further, the TGI in the assay with 786-0 renal was 67.2 µM; in the assay on NCI-H522 lung, over 100 µM; with MDA-MB-435, 6.49 µM; in the assay on OVCAR-8 ovarian, 14.5 µM; in the assay with MOLT-4 leukemia it was 12.1 µM; in the assay with NCI-H460 lung it was 10.8 µM. For the same compound, the values for the TGI in the assay with LOX IMVI melanoma, with HT29 colon and in the assay on M14 melanoma were 11.3 µM, over 100 µM and 9.96 µM, respectively.

Turning to `CCOC(=O)/C=C/C(C(=O)/C=C/c1ccc(O)c(OC)c1)=C(O)\C=C\c1ccc(O)c(OC)c1`, the GI50 in the assay on IGROV1 ovarian was 11 µM; in the assay on 786-0 renal it was 1.98 µM; with NCI-H522 lung it was 4.51 µM; with MDA-MB-435, 3.29 µM; in the assay with OVCAR-8 ovarian it was 2.21 µM; in the assay with MOLT-4 leukemia, 4.27 µM. In addition, the GI50 with NCI-H460 lung is 20 µM; in the assay on LOX IMVI melanoma, 0.903 µM; with HT29 colon, 1.83 µM; with M14 melanoma it was 2.2 µM. Also, the TGI with IGROV1 ovarian is 93.8 µM; in the assay on 786-0 renal, 6.68 µM; in the assay with NCI-H522 lung, 36.4 µM; in the assay with MDA-MB-435, 9.31 µM; in the assay with OVCAR-8 ovarian it was 5.91 µM; in the assay with MOLT-4 leukemia, over 100 µM. Further, the TGI with NCI-H460 lung is 54.4 µM; in the assay on LOX IMVI melanoma, 3.12 µM; in the assay on HT29 colon, 6.6 µM; in the assay on M14 melanoma it was 5.15 µM.

On to `CO[C@@H]1CC(=O)C2(CC(=O)O[C@@H]2/C=C(\C)CCC=C(C)C)C[C@@H]1O` (some centres not stated), for which the GI50 in the assay on IGROV1 ovarian was 1.09 µM; in the assay on 786-0 renal, 0.761 µM; in the assay on NCI-H522 lung it was 1.82 µM; with MDA-MB-435 it was 0.803 µM; in the assay with OVCAR-8 ovarian, 1.32 µM; in the assay with MOLT-4 leukemia, 0.233 µM. Further, the GI50 is 0.744 µM in the assay on NCI-H460 lung, 0.634 µM with LOX IMVI melanoma, 1.35 µM in the assay with HT29 colon and 0.709 µM with M14 melanoma. In addition, the TGI in the assay on IGROV1 ovarian was 4.03 µM; with 786-0 renal it was 1.58 µM; in the assay on NCI-H522 lung, over 50 µM; in the assay on MDA-MB-435, 3.59 µM; in the assay with OVCAR-8 ovarian, over 10.5 µM; in the assay with MOLT-4 leukemia, over 50 µM. In addition, the TGI in the assay on LOX IMVI melanoma was 1.57 µM; in the assay on HT29 colon, over 50 µM; in the assay on M14 melanoma it was 1.55 µM.

As to `CC(=O)O/N=C1/C(c2c(O)[nH]c3cc(Br)ccc23)=Nc2ccccc21`, the GI50 with IGROV1 ovarian was 1.27 µM; in the assay on 786-0 renal, 1.92 µM; in the assay on NCI-H522 lung, 1.56 µM; in the assay with MDA-MB-435, 1.63 µM; in the assay with OVCAR-8 ovarian, 1.59 µM; in the assay with MOLT-4 leukemia, 1.78 µM. In addition, the GI50 is 1.24 µM in the assay on NCI-H460 lung, 1.13 µM in the assay with LOX IMVI melanoma, 1.84 µM in the assay with HT29 colon and 2 µM in the assay with M14 melanoma. Moreover, the TGI is 3.33 µM in the assay on IGROV1 ovarian; 8.06 µM in the assay on 786-0 renal; 3.68 µM with NCI-H522 lung; 3.2 µM in the assay with MDA-MB-435; 4.53 µM in the assay on OVCAR-8 ovarian; 5.07 µM in the assay with MOLT-4 leukemia. Besides, the TGI was determined as 3.33 µM with NCI-H460 lung, 2.4 µM in the assay with LOX IMVI melanoma, 3.65 µM with HT29 colon and 4.88 µM in the assay on M14 melanoma.

Consider `O=C(O)c1cc2cc(OCc3ccccc3)c(OCc3ccccc3)cc2[nH]1`, for which the GI50 in the assay with IGROV1 ovarian was 24.9 µM; in the assay on 786-0 renal it was 22.7 µM; with NCI-H522 lung it was 24 µM; with MDA-MB-435 it was 19.2 µM; with OVCAR-8 ovarian, 26.9 µM; in the assay on MOLT-4 leukemia it was 25 µM. The GI50 was 17.8 µM with NCI-H460 lung, 18.1 µM in the assay with LOX IMVI melanoma, 29.5 µM with HT29 colon and 24.2 µM with M14 melanoma. For the same compound, the TGI with IGROV1 ovarian is 54.2 µM; with 786-0 renal it was 48.4 µM; with NCI-H522 lung it was 62.2 µM; in the assay with MDA-MB-435, 47.9 µM; with OVCAR-8 ovarian, 95.9 µM; with MOLT-4 leukemia it was over 100 µM. Also, the TGI is 33.4 µM in the assay with NCI-H460 lung, 35.4 µM in the assay with LOX IMVI melanoma, 59.6 µM in the assay on HT29 colon and 60.8 µM in the assay on M14 melanoma.

With `O=C(Nc1ccc(Cl)cc1)c1cc(-c2ccc(Cl)cc2)c2sc(=O)[nH]c2n1`, the GI50 in the assay with IGROV1 ovarian was 2.83 µM; in the assay with 786-0 renal it was 2.64 µM; with NCI-H522 lung, 0.408 µM; in the assay with MDA-MB-435, 2.7 µM; in the assay on OVCAR-8 ovarian it was 2.04 µM; with MOLT-4 leukemia it was 2.52 µM. For the same compound, the GI50 in the assay on NCI-H460 lung is 2.19 µM; in the assay with LOX IMVI melanoma it was 2.88 µM; with HT29 colon, 2.13 µM; in the assay with M14 melanoma, 2.75 µM. Further, the TGI with IGROV1 ovarian is 28.9 µM; in the assay on 786-0 renal, 20.6 µM; in the assay with NCI-H522 lung, 3.12 µM; with MDA-MB-435, 11.2 µM; in the assay on OVCAR-8 ovarian, 12.8 µM; with MOLT-4 leukemia it was 11.8 µM. The TGI in the assay with NCI-H460 lung amounted to 12.6 µM; with LOX IMVI melanoma it was 10.6 µM; in the assay with HT29 colon it was 6.29 µM; with M14 melanoma it was 10.3 µM.
